Test results as given in the NIST ThermoML archive (doi:10.1021/je200637v).
± gives the expanded uncertainty stated by the source.

Experiment: activity coefficient (dimensionless); of the first substance listed, at infinite dilution; xn = mol fraction of the nth substance listed
Conditions: Liquid, Chromatography, x1 = 0

Structure (SMILES) | activity coefficient (322.85 K) | activity coefficient (332.65 K) | activity coefficient (343.15 K)
CCCCCCCC [octane] + CCCC[N+](C)(CCCC)CCCC.O=S(=O)([N-]S(=O)(=O)C(F)(F)F)C(F)(F)F | 11.6 ± 0.53 | 11.5 ± 0.53 | 10.8 ± 0.5
CCCC(C)=O [pentan-2-one] + CCCCCCCCCC[N+](C)(C)C.O=S(=O)([N-]S(=O)(=O)C(F)(F)F)C(F)(F)F | 0.44 ± 0.03 | 0.47 ± 0.03 | 0.47 ± 0.03
CCCC(C)=O [pentan-2-one] + CCCCCCCC[N+](C)(C)C.O=S(=O)([N-]S(=O)(=O)C(F)(F)F)C(F)(F)F | 0.57 ± 0.03 | 0.57 ± 0.03 | 0.57 ± 0.03
CCCC(C)=O [pentan-2-one] + CCCCCCCC[N+](CCCCCCCC)(CCCCCCCC)CCCCCCCC.O=S(=O)([N-]S(=O)(=O)C(F)(F)F)C(F)(F)F | 0.35 ± 0.04 | 0.36 ± 0.04 | 0.37 ± 0.03
CCCC(C)=O [pentan-2-one] + CCCC[N+](C)(CCCC)CCCC.O=S(=O)([N-]S(=O)(=O)C(F)(F)F)C(F)(F)F | 0.55 ± 0.03 | 0.58 ± 0.03 | 0.59 ± 0.03
CCC(=O)CC [pentan-3-one] + CCCCCCCCCC[N+](C)(C)C.O=S(=O)([N-]S(=O)(=O)C(F)(F)F)C(F)(F)F | 0.41 ± 0.03 | 0.43 ± 0.03 | 0.44 ± 0.03
CCC(=O)CC [pentan-3-one] + CCCCCCCC[N+](C)(C)C.O=S(=O)([N-]S(=O)(=O)C(F)(F)F)C(F)(F)F | 0.52 ± 0.03 | 0.53 ± 0.03 | 0.54 ± 0.03
CCC(=O)CC [pentan-3-one] + CCCCCCCC[N+](CCCCCCCC)(CCCCCCCC)CCCCCCCC.O=S(=O)([N-]S(=O)(=O)C(F)(F)F)C(F)(F)F | 0.32 ± 0.04 | 0.33 ± 0.04 | 0.35 ± 0.04
CCC(=O)CC [pentan-3-one] + CCCC[N+](C)(CCCC)CCCC.O=S(=O)([N-]S(=O)(=O)C(F)(F)F)C(F)(F)F | 0.5 ± 0.03 | 0.54 ± 0.03 | 0.56 ± 0.03
CCCO [propan-1-ol] + CCCCCCCCCC[N+](C)(C)C.O=S(=O)([N-]S(=O)(=O)C(F)(F)F)C(F)(F)F | 1.48 ± 0.06 | 1.37 ± 0.05 | 1.21 ± 0.04
CCCO [propan-1-ol] + CCCCCCCC[N+](C)(C)C.O=S(=O)([N-]S(=O)(=O)C(F)(F)F)C(F)(F)F | 1.7 ± 0.07 | 1.55 ± 0.06 | 1.37 ± 0.05
CCCO [propan-1-ol] + CCCCCCCC[N+](CCCCCCCC)(CCCCCCCC)CCCCCCCC.O=S(=O)([N-]S(=O)(=O)C(F)(F)F)C(F)(F)F | 1.22 ± 0.04 | 1.14 ± 0.03 | 1.04 ± 0.03
CCCO [propan-1-ol] + CCCC[N+](C)(CCCC)CCCC.O=S(=O)([N-]S(=O)(=O)C(F)(F)F)C(F)(F)F | 1.78 ± 0.08 | 1.64 ± 0.07 | 1.48 ± 0.06
CC(C)O [propan-2-ol] + CCCCCCCCCC[N+](C)(C)C.O=S(=O)([N-]S(=O)(=O)C(F)(F)F)C(F)(F)F | 1.38 ± 0.05 | 1.28 ± 0.04 | 1.15 ± 0.04
CC(C)O [propan-2-ol] + CCCCCCCC[N+](C)(C)C.O=S(=O)([N-]S(=O)(=O)C(F)(F)F)C(F)(F)F | 1.63 ± 0.07 |  | 1.32 ± 0.05
CC(C)O [propan-2-ol] + CCCCCCCC[N+](CCCCCCCC)(CCCCCCCC)CCCCCCCC.O=S(=O)([N-]S(=O)(=O)C(F)(F)F)C(F)(F)F | 1.21 ± 0.04 | 1.13 ± 0.03 | 1.05 ± 0.03
CC(C)O [propan-2-ol] + CCCC[N+](C)(CCCC)CCCC.O=S(=O)([N-]S(=O)(=O)C(F)(F)F)C(F)(F)F | 1.67 ± 0.07 | 1.54 ± 0.06 | 1.4 ± 0.05
CCC=O [propanal] + CCCCCCCCCC[N+](C)(C)C.O=S(=O)([N-]S(=O)(=O)C(F)(F)F)C(F)(F)F | 0.4 ± 0.03 | 0.42 ± 0.03 | 0.41 ± 0.03
CCC=O [propanal] + CCCCCCCC[N+](C)(C)C.O=S(=O)([N-]S(=O)(=O)C(F)(F)F)C(F)(F)F | 0.48 ± 0.03 | 0.47 ± 0.03 | 0.46 ± 0.03
CCC=O [propanal] + CCCCCCCC[N+](CCCCCCCC)(CCCCCCCC)CCCCCCCC.O=S(=O)([N-]S(=O)(=O)C(F)(F)F)C(F)(F)F | 0.25 ± 0.04 | 0.35 ± 0.04 | 0.35 ± 0.04
CCC=O [propanal] + CCCC[N+](C)(CCCC)CCCC.O=S(=O)([N-]S(=O)(=O)C(F)(F)F)C(F)(F)F | 0.49 ± 0.03 | 0.49 ± 0.03 | 0.5 ± 0.03
c1ccncc1 [pyridine] + CCCCCCCCCC[N+](C)(C)C.O=S(=O)([N-]S(=O)(=O)C(F)(F)F)C(F)(F)F | 0.46 ± 0.03 | 0.47 ± 0.03 | 0.47 ± 0.03

Structure (SMILES) | activity coefficient (322.85 K) | activity coefficient (332.65 K) | activity coefficient (343.15 K)
c1ccncc1 [pyridine] + CCCCCCCC[N+](C)(C)C.O=S(=O)([N-]S(=O)(=O)C(F)(F)F)C(F)(F)F | 0.45 ± 0.03 | 0.44 ± 0.03 | 0.43 ± 0.03
c1ccncc1 [pyridine] + CCCCCCCC[N+](CCCCCCCC)(CCCCCCCC)CCCCCCCC.O=S(=O)([N-]S(=O)(=O)C(F)(F)F)C(F)(F)F | 0.33 ± 0.04 | 0.33 ± 0.04 | 0.34 ± 0.04
c1ccncc1 [pyridine] + CCCC[N+](C)(CCCC)CCCC.O=S(=O)([N-]S(=O)(=O)C(F)(F)F)C(F)(F)F | 0.55 ± 0.03 | 0.56 ± 0.03 | 0.56 ± 0.03
ClC(Cl)(Cl)Cl [tetrachloromethane] + CCCCCCCCCC[N+](C)(C)C.O=S(=O)([N-]S(=O)(=O)C(F)(F)F)C(F)(F)F | 1.46 ± 0.06 | 1.5 ± 0.06 | 1.47 ± 0.06
ClC(Cl)(Cl)Cl [tetrachloromethane] + CCCCCCCC[N+](C)(C)C.O=S(=O)([N-]S(=O)(=O)C(F)(F)F)C(F)(F)F | 1.63 ± 0.07 | 1.63 ± 0.07 | 1.6 ± 0.06
ClC(Cl)(Cl)Cl [tetrachloromethane] + CCCCCCCC[N+](CCCCCCCC)(CCCCCCCC)CCCCCCCC.O=S(=O)([N-]S(=O)(=O)C(F)(F)F)C(F)(F)F | 0.63 ± 0.03 | 0.64 ± 0.03 | 0.64 ± 0.03
ClC(Cl)(Cl)Cl [tetrachloromethane] + CCCC[N+](C)(CCCC)CCCC.O=S(=O)([N-]S(=O)(=O)C(F)(F)F)C(F)(F)F | 2.11 ± 0.1 | 2.11 ± 0.1 | 2.07 ± 0.09
c1ccsc1 [thiophene] + CCCCCCCCCC[N+](C)(C)C.O=S(=O)([N-]S(=O)(=O)C(F)(F)F)C(F)(F)F | 0.65 ± 0.03 | 0.7 ± 0.03 | 0.68 ± 0.03
c1ccsc1 [thiophene] + CCCCCCCC[N+](C)(C)C.O=S(=O)([N-]S(=O)(=O)C(F)(F)F)C(F)(F)F | 0.69 ± 0.03 | 0.69 ± 0.03 | 0.69 ± 0.03
c1ccsc1 [thiophene] + CCCCCCCC[N+](CCCCCCCC)(CCCCCCCC)CCCCCCCC.O=S(=O)([N-]S(=O)(=O)C(F)(F)F)C(F)(F)F | 0.4 ± 0.03 | 0.4 ± 0.03 | 0.41 ± 0.03
c1ccsc1 [thiophene] + CCCC[N+](C)(CCCC)CCCC.O=S(=O)([N-]S(=O)(=O)C(F)(F)F)C(F)(F)F | 0.86 ± 0.03 | 0.88 ± 0.03 | 0.87 ± 0.03
Cc1ccccc1 [toluene] + CCCCCCCCCC[N+](C)(C)C.O=S(=O)([N-]S(=O)(=O)C(F)(F)F)C(F)(F)F | 0.84 ± 0.03 | 0.89 ± 0.03 | 0.89 ± 0.03
Cc1ccccc1 [toluene] + CCCCCCCC[N+](C)(C)C.O=S(=O)([N-]S(=O)(=O)C(F)(F)F)C(F)(F)F | 0.97 ± 0.03 | 0.98 ± 0.03 | 0.98 ± 0.03
Cc1ccccc1 [toluene] + CCCCCCCC[N+](CCCCCCCC)(CCCCCCCC)CCCCCCCC.O=S(=O)([N-]S(=O)(=O)C(F)(F)F)C(F)(F)F | 0.47 ± 0.03 | 0.48 ± 0.03 | 0.49 ± 0.03
Cc1ccccc1 [toluene] + CCCC[N+](C)(CCCC)CCCC.O=S(=O)([N-]S(=O)(=O)C(F)(F)F)C(F)(F)F | 1.13 ± 0.03 | 1.19 ± 0.04 | 1.19 ± 0.04
ClC(Cl)Cl [trichloromethane] + CCCCCCCCCC[N+](C)(C)C.O=S(=O)([N-]S(=O)(=O)C(F)(F)F)C(F)(F)F | 0.65 ± 0.03 | 0.68 ± 0.03 | 0.68 ± 0.03
ClC(Cl)Cl [trichloromethane] + CCCCCCCC[N+](C)(C)C.O=S(=O)([N-]S(=O)(=O)C(F)(F)F)C(F)(F)F | 0.63 ± 0.03 | 0.65 ± 0.03 | 0.66 ± 0.03
ClC(Cl)Cl [trichloromethane] + CCCCCCCC[N+](CCCCCCCC)(CCCCCCCC)CCCCCCCC.O=S(=O)([N-]S(=O)(=O)C(F)(F)F)C(F)(F)F | 0.34 ± 0.04 | 0.35 ± 0.04 | 0.36 ± 0.04
ClC(Cl)Cl [trichloromethane] + CCCC[N+](C)(CCCC)CCCC.O=S(=O)([N-]S(=O)(=O)C(F)(F)F)C(F)(F)F | 0.84 ± 0.03 | 0.87 ± 0.03 | 0.88 ± 0.03
CCN(CC)CC [triethylamine] + CCCCCCCCCC[N+](C)(C)C.O=S(=O)([N-]S(=O)(=O)C(F)(F)F)C(F)(F)F | 2.17 ± 0.1 | 2.4 ± 0.11 | 2.31 ± 0.1
CCN(CC)CC [triethylamine] + CCCCCCCC[N+](CCCCCCCC)(CCCCCCCC)CCCCCCCC.O=S(=O)([N-]S(=O)(=O)C(F)(F)F)C(F)(F)F | 1.03 ± 0.03 | 1.05 ± 0.03 | 1.02 ± 0.03
CCCCCCCCCCC [undecane] + CCCCCCCCCC[N+](C)(C)C.O=S(=O)([N-]S(=O)(=O)C(F)(F)F)C(F)(F)F | 12.4 ± 0.57 | 12.2 ± 0.56 | 11.4 ± 0.52
